Data from PMC11062894, “Protein-based bandpass filters for controlling cellular signaling with chemical inputs” (Nature Chemical Biology, 2023).

Test system: GEMS receptors with CBPA11 (BclXL–LD3 and BclXLhigh variants), STAT3-driven SEAP in HEK293T cells
Assay: GEMS SEAP reporter assay, CBPA11 (BclXLhigh, LD3-v and BclXL-v variants) with A-1155463
Format: cell-based
Design: key to Raw data (SEAP) / SEAP, replicate values / Raw data of Figure 5b / Raw data Figure 5e / Raw data of Independent repeat of CBPA11-v1 vs CBPA11-v1-LD3v3 / Raw data of Independent repeat of CBPA11-v3 vs CBPA11-v3-LD3v3 / Raw data of Figure 5b, CBPA11-v1-LD3v3 (SEAP reporter raw value, single replicate) / Raw data of Figure 5b, CBPA11-v1 (SEAP reporter raw value, single replicate): SEAP activity in U/L in culture supernatant
Details: SuppFigure 9c
Text: To rationally design a CBP responding to a chemical input, we used BclXL as the druglow receptor, LD3 as the designed binder and a designed BclXL variant as the drughigh receptor (referred to as BclXLhigh) to construct a CBP responsive to BclXL inhibitors (Fig. 4a). To design BclXLhigh, we used a multistate design computational protocol described elsewhere[26] […] Thus, BclXLhigh-v(1–3) were chosen as the functional drughigh receptors, resulting in three A-1155463-controlled CBPs (referred to as CBPA11-v(1–3)) (Fig. 4c–e).
HEK293T cells were seeded in a 96-well plate 24 h before transfection. The transfection mix in each well consisted of 3 ng of constitutive human CMV promoter driven mammalian STAT3 expression vector (PhCMV-STAT3-pA), 30 ng of STAT3-induced reporter expression (OStat3-PhCMVmin-SEAP-pA) and 50 ng of expression vectors for each GEMS receptor chain (PSV40-IgK-(drughigh receptor)-EpoRm-IL-6RBm-pA and PSV40-IgK-(druglow receptor-GGGGSX3-LD3)-EpoRm-IL-6RBm-pA). For the specific drughigh receptor and druglow receptor used in the different cellular assays, they are indicated as wild type or with mutations. Then, plasmid DNA was mixed with 50 μl opti-MEM (Thermo Fisher) and 600 ng of polyethyleneimine (Polysciences, catalog no. 24765-1). For drug treatment experiments, drugs were added 12 h post-transfection and incubated with cells for 24 h before the SEAP reporter detection assay.
SEAP activity (U l^−1) in cell culture supernatants was quantified by kinetic measurements at 405 nm (1 minute per measurement for 30 cycles) of absorbance increase due to phosphatase-mediated hydrolysis of para-nitrophenyl phosphate (pNPP).
Binding affinities of SPR drug competition assays were calculated using three-parameter nonlinear regression in GraphPad Prism (v.8.3.0). Representative data of cell assays are presented as individual values and mean values (bars). n = 3 refers to biological replicates. All IC50 or EC50 values of cell assays reported were calculated using four-parameter nonlinear regression ± s.d. Bandpass features of cutoff concentrations and Bandwidth90% were estimated based on the curve fitted using bell-shaped curve nonlinear regression in GraphPad Prism (v.8.3.0). […]
Supplementary Figure 4: Design, screening and validation of BclXLhigh variants. a) Screening of BclXLhigh variants in the GEMS platform. […]
Dissociation constant measurement of BclXLhigh-v(1-3) and LD3. Equilibrium curves are fitted using […]
BclXLhigh-v1 (purple), BclXLhigh-v2 (blue), […]
a) Bcl2high-based bandpass filter designs were developed and to respond to different concentrations of […]
corresponding inhibitor. c) Screening of Bcl2high-based bandpass filter variants in the GEMS platform.
The designed binder LD3 was fused to the druglow-receptor (PSV40-IgK-Bcl2-LD3-EpoRm-IL-6RBm-pA) in one EpoR chain and Bcl2high variants with the insensitive Bcl2 (iBcl2) as control in the other EpoR chain (PSV40-IgK-Bcl2high-EpoRm-IL-6RBm-pA). HEK293T cells were transfected with indicated […]
the mean of six biological replicates ± s.d., overlaid with a scatter dot plot of the original data points.
(1 picture or pasted object on this page, not shown here)
Supplementary Figure 6: Binding affinities and drug resistances of Bcl2high-v(2,4,5) assessed by […]
a) Measurement of dissociation constants for Bcl2high-v(2,4,5) and LD3 interactions. Equilibrium curves […]
Bcl2high-v(2,4,5) measured by SPR. 5 μM of Bcl2 or indicated variants were mixed with 10 μM of […]
Bcl2high-v2 (red), Bcl2high-v4
Supplementary Figure 7: Screening of LD3 variants in CBPA11-v(1-3) and raw data of CBPA11-v(1,3) with LD3-v3 variant. a-c) Screening of LD3 and LD3-v(1-3) variants in complex with BclXL for more sensitive CBPA11-v1 (a), CBPA11-v2 (b), CBPA11-v3 (c) in the GEMS platform. The LD3 variants replaced the role of LD3 (PSV40-IgK-BclXL-LD3-v(1-3)-EpoRm-IL-6RBm-pA) in one EpoR chain and BclXLhigh-v(1-3) in the other EpoR chain (PSV40-IgK-BclXLhigh-V(1-3)-EpoRm-IL-6RBm-pA). HEK293T cells were transfected with […]

## CN(C)CC#Cc1ccc(OCCCc2sc(N3CCc4cccc(C(=O)Nc5nc6ccccc6s5)c4C3)nc2C(=O)O)c(F)c1 [A-1155463]
LD3, A-1155463 316 nM
  Raw data (SEAP): 61.2138
LD3, A-1155463 1000 nM
  Normalized data (SEAP): 55.4364
  Raw data (SEAP): 44.3919
LD3, A-1155463 3160 nM
  Normalized data (SEAP): 36.9566
  Raw data (SEAP): 29.5938
LD3, A-1155463 10000 nM
  Normalized data (SEAP): 17.181
  Raw data (SEAP): 13.758
LD3v1, A-1155463 1 nM
  Normalized data (SEAP): 5.697
  Raw data (SEAP): 3.397
LD3v1, A-1155463 3.16 nM
  Normalized data (SEAP): 9.008
  Raw data (SEAP): 5.371
LD3v1, A-1155463 10 nM
  Normalized data (SEAP): 34.145
  Raw data (SEAP): 20.3588
LD3v1, A-1155463 31.6 nM
  Normalized data (SEAP): 55.6344
  Raw data (SEAP): 33.1716
LD3v1, A-1155463 100 nM
  Normalized data (SEAP): 100
  Raw data (SEAP): 59.6244
LD3v1, A-1155463 316 nM
  Normalized data (SEAP): 84.0823
  Raw data (SEAP): 50.1335
LD3v1, A-1155463 1000 nM
  Normalized data (SEAP): 65.4287
  Raw data (SEAP): 39.0114
LD3v1, A-1155463 3160 nM
  Normalized data (SEAP): 35.6708
  Raw data (SEAP): 21.2685
LD3v1, A-1155463 10000 nM
  Normalized data (SEAP): 16.487
  Raw data (SEAP): 9.83
LD3v2, A-1155463 1 nM
  Normalized data (SEAP): 18.0278
  Raw data (SEAP): 19.4289
LD3v2, A-1155463 3.16 nM
  Normalized data (SEAP): 13.8407
  Raw data (SEAP): 14.9163
LD3v2, A-1155463 10 nM
  Normalized data (SEAP): 72.4321
  Raw data (SEAP): 78.0614
LD3v2, A-1155463 31.6 nM
  Normalized data (SEAP): 98.2639
  Raw data (SEAP): 105.901
LD3v2, A-1155463 100 nM
  Normalized data (SEAP): 100
  Raw data (SEAP): 107.772
LD3v2, A-1155463 316 nM
  Normalized data (SEAP): 90.2158
  Raw data (SEAP): 97.2273
LD3v2, A-1155463 1000 nM
  Normalized data (SEAP): 79.3099
  Raw data (SEAP): 85.4738
LD3v2, A-1155463 3160 nM
  Normalized data (SEAP): 45.5807
  Raw data (SEAP): 49.1232
LD3v2, A-1155463 10000 nM
  Normalized data (SEAP): 26.3886
  Raw data (SEAP): 28.4395
LD3v3, A-1155463 1 nM
  Normalized data (SEAP): 53.0121
  Raw data (SEAP): 3.893
LD3v3, A-1155463 3.16 nM
  Normalized data (SEAP): 45.4436
  Raw data (SEAP): 3.337
